Assay results reported in patent US12427160B2, “Use of cannabinoids in the treatment of epilepsy” (Jazz Pharmaceuticals Research UK Limited, priority 2014, dated 2025).

Assays:
generalized epilepsy = settings: eight adult patients with generalized epilepsy; cited from earlier work
seizures [1] = settings: 200 mg/day of pure CBD, open label, twelve institutionalized adult patients; cited from earlier work
[2] = test system: children and young adults with severe, childhood onset treatment-resistant epilepsy (TRE); experiment: Expanded access compassionate use program: 50% responders after 12 weeks of CBD added to baseline AED; assay type: in vivo, human; settings: 12 weeks of treatment
seizures [3] = settings: 200 mg/day of pure CBD, four adult patients; cited from earlier work
seizures in mice = settings: after pro-convulsant drugs or an electric current; cited from earlier work
Lennox-Gastaut syndrome = settings: CBD in an oily solution, a child with Lennox-Gastaut syndrome; cited from earlier work
[4] = Solubility of the drug substance in water; assay type: physicochemical
Text: Sesame oil was selected as an excipient to solubilize the drug substance.

[5] = in vivo; cited from earlier work

SMILES: C=C(C)[C@@H]1CCC(C)=C[C@H]1c1c(O)cc(CCCCC)cc1O [CBD, Cannabidiol]
- reduction of seizures (generalized epilepsy): marked reduction of seizures in 4 of the patients
- control of seizures (seizures [1]): ineffective in controlling seizures
- <50% reduction in seizures, proportion of patients, absence seizures ([2]; absence seizures (n = 28)): 36%
- >50% reduction in seizures, proportion of patients, absence seizures ([2]; absence seizures (n = 28)): 64%
- <50% reduction in seizures, proportion of patients, clonic seizures ([2]; clonic seizures (n = 8)): 50%
- >50% reduction in seizures, proportion of patients, clonic seizures ([2]; clonic seizures (n = 8)): 50%
- <50% reduction in seizures, proportion of patients, myoclonic seizures ([2]; myoclonic seizures (n = 30)): 57%
- >50% reduction in seizures, proportion of patients, myoclonic seizures ([2]; myoclonic seizures (n = 30)): 43%
- <50% reduction in seizures, proportion of patients, tonic seizures ([2]; tonic seizures (n = 45)): 51%
- >50% reduction in seizures, proportion of patients, tonic seizures ([2]; tonic seizures (n = 45)): 49%
- <50% reduction in seizures, proportion of patients, tonic-clonic seizures ([2]; tonic-clonic seizures (n = 65)): 37%
- >50% reduction in seizures, proportion of patients, tonic-clonic seizures ([2]; tonic-clonic seizures (n = 65)): 43%
- <50% reduction in seizures, proportion of patients, total seizures ([2]; total seizures (n = 137)): 54% (n = 74)
- seizure freedom / seizure frequency (seizures [3]): two of the four patients became seizure free
- prevention of seizures (seizures in mice): able to prevent seizures in mice
- seizure frequency (Lennox-Gastaut syndrome): improvement in seizure frequency
- solubility in water [4]: insoluble in water

SMILES: CCCCCc1cc(O)c2c(c1)OC(C)(C)[C@@H]1CCC(C)=C[C@@H]21 [THC, Tetrahydrocannabinol]
- pro-convulsant effect [5]: pro-convulsant
